Results reported in article PMC10570359, “Dietary supplementation of cystinotic mice by lysine inhibits the megalin pathway and decreases kidney cystine content” (Scientific Reports, 2023).
Where two headings read alike, the source gives them in different places. Values belong to the compound of their own block, whether it stands above or below them.

Key:
[1] = Urinary and serum amino-acid concentration by mass spectrometry in Ctns KO mice; format: in vivo
Experimental: (§1) Body weight was recorded before entering the metabolic cages. […] Creatinine clearance was normalized by mouse body weight.
Quantitative analysis of underivatized amino-acids in serum and urine samples was performed using the Amino Acids LC–MS/MS analysis Kit Jasem®. […] Equipment was controlled and data were analyzed using MassHunter Workstation (Agilent Technologies). The assay was validated for selectivity, specificity, linearity and limit of quantification, accuracy and precision, matrix effects and recovery, and stability.

megalin pathway [2] = assay: LMW proteinuria (urinary CC16) in WT mice under 5x-dAA diets; format: in vivo; conditions: WT C57Bl-6 mice, 3 weeks diet, vs control diet
Experimental: In a second experiment, 5x-D-lysine was compared to regular diet.
as §1

[3] = Tolerance of prolonged 5x-dAA diets in mice; conditions: ad libitum 5x-supplemented solid diet, approx. 45 mmoles/kg/day
Excerpt: Ctns knockout mice (C57BL/6 background) were kindly provided by Dr. Corinne Antignac[18]. […] The same increase was set for L- (and D-) lysine.

porcine megalin [4] = target: T1, porcine megalin (Sus scrofa, UniProt C0HL13); assay: Surface plasmon resonance: competition for TC:B12 binding to chip-immobilized megalin; conditions: for IC50: 10 µg/ml TC:B12 in 0 to 100 mM amino-acid, Biacore; for SPR signal of amino-acid alone on megalin chip: chips exposed to increasing concentrations of amino-acid, no analyte
Experimental: (§2) To directly address whether supra-physiological concentrations of dibasic amino-acids (dAAs) can interfere with binding of protein ligands to megalin, we used surface plasmon resonance. Sensor chips were derivatized with porcine megalin at high density. […] After flushing, chips were incubated with 10 µg/ml of three analytes: the megalin chaperone, RAP (receptor-associated protein), as positive control (not shown), or two physiological megalin ligands: transcobalamine:cobalamine complexes (TC:B12; Fig. 1; sensorgrams shown at Supplemental Fig. 1a) or lysozyme (Supplemental Fig. 1b), diluted in 0 to 100 mM of the same amino-acids in buffer. […] The supraphysiological range for effective competition in vitro defined the necessary increment in urinary concentration from dietary supplementation for significant competition in vivo.
Figure 1 Acellular assay: direct competition for transcobalamine:cobalamine binding to megalin immobilized on Biacore sensor chips. Signals of sensorgrams (shown in Supplemental Fig. 1) were normalized to control signal without AA supplementation, taken as the unity, and are means ± SEM of at least four independent technical duplicate values at each of the indicated amino-acid-concentrations.
(§3) Surface plasmon resonance (SPR) analysis of the binding to chip-immobilized megalin of receptor-associated protein (RAP), transcobalamine:cobalamine complex (TC:B12) and lysozyme was carried out using a Biacore T200 instrument (Uppsala, Sweden). The sensor chips (type CM5) were activated with a 1:1 mixture of 0.2 M N-ethyl-N′-(3-dimethylaminopropyl) carbodiimide and 0.05 M N-hydroxysuccinimide in H2O. Porcine megalin[49] was immobilized on the chip in 10 mM sodium acetate, pH 4.0, and the remaining binding sites were blocked with 1 M ethanolamine, pH 8.5. The SPR signal generated from immobilized megalin were obtained with a density of 4.5 fmol protein/mm^2.
(§4) Human RAP was produced as recombinant protein in E. coli[50] and used to validate the sensor chip. TC was purified and complexed with B12 as described (TC/B12)[50],[51]. Human recombinant lysozyme was purchased from Sigma-Aldrich (expressed in rice, # L1667). Sensorgrams were generated using each of these three ligands at 10 µg/ml in a running buffer consisting of 10 mM Hepes, 150 mM NaCl, 4 mM CaCl2 and 0.05% Tween 20, pH 7.4. The flow cells were regenerated with 1 M ethanolamine pH 9.0. Analyte testing was performed as a dual injection starting with running buffer supplemented with the defined concentrations of amino acids followed by injection of analyte in the same solution. The pH of all buffers was adjusted after amino acids addition. All binding experiments were made as at least independent triplicate of technical duplicates and data were analyzed using the Biacore T200 evaluation software version 3.1.

porcine megalin [5] = target: T1, porcine megalin; assay: Surface plasmon resonance: competition for lysozyme binding to chip-immobilized megalin; conditions: 10 µg/ml lysozyme in 0 to 100 mM amino-acid
Experimental: as §2, §3, §4

Ctns KO mice kidneys = assay: Kidney cystine content in Ctns KO mice; format: in vivo; conditions: diet from 6-to-8 months-of-age
Experimental: For this pilot study, we selected tissue accumulation of cystine as a clear and measurable outcome to quantify long-term interference of dAAs with the endocytic supply of disulfide-rich plasma proteins to kidney PTCs.
(§5) Mice were euthanized by cabon dioxide (CO2) inhalation. Dissected tissues were homogenized in 10 mM N-ethylmaleimide. Protein fraction was obtained after precipitation in 10% 5-sulfosalicylic acid and centrifugation at 20,000g for 20 min at 4 °C. Protein pellet was resuspended in 100 mM NaOH and assayed by the Bio-Rad Protein Assay according to manufacturer’s instructions. Supernatant (50 μl) was mixed with 50 μL of the internal standard solution (Cystine d6) and vortexed for 5 s; then the mixture was extracted with 200 μl of acetonitrile, vortexed for at least 30 s, then centrifuged at 13,000 rpm for 9 min. Liquid chromatography and mass spectrometry analysis was performed by a UHPLC Agilent 1290 Infinity II 6470 (Agilent Technologies) equipped with an ESI-JET-STREAM source operating in the positive ion (ESI +) mode. Equipment was controlled and data were analyzed using MassHunter Workstation (Agilent Technologies). The separation column was InfinityLab Poroshell 120 HILIC 1.9 μm 100 × 2.1 mm (Agilent Technologies). Validation of the method was performed basing on the US Food and Drug Administration (FDA) guideline for industry bioanalytical method validation (FDA 2013) and European Medicines Agency (EMA) guideline (EMA 2011). The assay was validated for selectivity, specificity, linearity and limit of quantification, accuracy and precision, matrix effects and recovery, and stability.

megalin pathway [6] = assay: LMW proteinuria / albuminuria in Ctns KO mice under 5x-dAA diets
Experimental: After 24-h adaptation in metabolic cages, urine was collected during the following 24 h in presence of 0.1% sodium azide and 1x-protease inhibitors (Thermo Scientific). When in metabolic cages, mice had free access to tap water and food. Blood was collected 2 days before starting the treatments and entry into metabolic cages (baseline) and at the sacrifice to obtain serum. Body weight was recorded before entering the metabolic cages. Urine and serum analyses were performed by the veterinary laboratory Appialab Srl (Rome, Italy). Urinary levels of CC16 were measured by the Mouse Clara Cell Protein 16 kit 96 T #EKU03200 (Biomatik) according to manufacturer’s instructions. Serum levels of cystatin-C were measured by the Mouse/Rat Cystatin C Quantitative ELISA #MSCTC0 (R&D Systems). […] Creatinine clearance was normalized by mouse body weight.

[7] = Clinical urine and serum analyses in Ctns KO mice under 5x-dAA diets; conditions: Ctns KO mice at 8 months of age, 2 months of treatment, mean ± SEM
Excerpt: We also attempted to further discriminate between luminal (competition for surface megalin binding) and intracellular metabolic effects (see Discussion) by comparing the effects of 5x-L-lysine to its stereoisomer, 5x-D-lysine. Unless stated otherwise, diets were initiated at 6 months-of-age, and mice were studied then euthanized at 8 months-of-age (2-months treatment). This time frame was selected for two reasons. First, in the mouse cystinosis model, this an appropriate window to evaluate the impact on PTC alterations based on changes in kidney cystine accumulation and overall function. […] Second, although primary prevention by earlier intervention (from 2-to-6 months-of-age) better mimics perinatal genetic megalin ablation, thus could be more efficient, secondary intervention (starting at 6 months-of-age), when disease becomes clinically apparent, is more relevant for further translational studies.
as §1

Ctns KO mice liver = assay: Liver cystine content in Ctns KO mice; format: in vivo; conditions: diet from 6-to-8 months-of-age
Experimental: In the second study to explore the effects of the D-lysine stereoisomer, Ctns KO mice received control vs 5x-D-lysine diet from 6-to-8 months-of-age. Mean kidney cystine value at 8 months-of-age under control diet was 109.4 ± 23.0 nmol hemi-cystine/mg kidney protein, slightly lower than in the first study.
as §5, with “The separation column was InfinityLab Poroshell 120 HILIC 1.9 μm 100 × 2.1 mm (Agilent Technologies). Validation of the method was performed basing on the US Food and Drug Administration (FDA) guideline for industry bioanalytical method validation (FDA 2013) and European Medicines Agency (EMA) guideline (EMA 2011).” left out

[8] = Ctns KO mice at 8 months of age, 24-h urine, mean ± SEM
[9] = read-out: IC50 for TC:B12/megalin interaction (mM; 95%CI)
[10] = Ctns KO mice at 8 months of age, 2 months of treatment, urine, mean ± SEM
[11] = IC50 for TC:B12/megalin interaction (mM; 95%CI)

T1 sequence (C0HL13 26-4652): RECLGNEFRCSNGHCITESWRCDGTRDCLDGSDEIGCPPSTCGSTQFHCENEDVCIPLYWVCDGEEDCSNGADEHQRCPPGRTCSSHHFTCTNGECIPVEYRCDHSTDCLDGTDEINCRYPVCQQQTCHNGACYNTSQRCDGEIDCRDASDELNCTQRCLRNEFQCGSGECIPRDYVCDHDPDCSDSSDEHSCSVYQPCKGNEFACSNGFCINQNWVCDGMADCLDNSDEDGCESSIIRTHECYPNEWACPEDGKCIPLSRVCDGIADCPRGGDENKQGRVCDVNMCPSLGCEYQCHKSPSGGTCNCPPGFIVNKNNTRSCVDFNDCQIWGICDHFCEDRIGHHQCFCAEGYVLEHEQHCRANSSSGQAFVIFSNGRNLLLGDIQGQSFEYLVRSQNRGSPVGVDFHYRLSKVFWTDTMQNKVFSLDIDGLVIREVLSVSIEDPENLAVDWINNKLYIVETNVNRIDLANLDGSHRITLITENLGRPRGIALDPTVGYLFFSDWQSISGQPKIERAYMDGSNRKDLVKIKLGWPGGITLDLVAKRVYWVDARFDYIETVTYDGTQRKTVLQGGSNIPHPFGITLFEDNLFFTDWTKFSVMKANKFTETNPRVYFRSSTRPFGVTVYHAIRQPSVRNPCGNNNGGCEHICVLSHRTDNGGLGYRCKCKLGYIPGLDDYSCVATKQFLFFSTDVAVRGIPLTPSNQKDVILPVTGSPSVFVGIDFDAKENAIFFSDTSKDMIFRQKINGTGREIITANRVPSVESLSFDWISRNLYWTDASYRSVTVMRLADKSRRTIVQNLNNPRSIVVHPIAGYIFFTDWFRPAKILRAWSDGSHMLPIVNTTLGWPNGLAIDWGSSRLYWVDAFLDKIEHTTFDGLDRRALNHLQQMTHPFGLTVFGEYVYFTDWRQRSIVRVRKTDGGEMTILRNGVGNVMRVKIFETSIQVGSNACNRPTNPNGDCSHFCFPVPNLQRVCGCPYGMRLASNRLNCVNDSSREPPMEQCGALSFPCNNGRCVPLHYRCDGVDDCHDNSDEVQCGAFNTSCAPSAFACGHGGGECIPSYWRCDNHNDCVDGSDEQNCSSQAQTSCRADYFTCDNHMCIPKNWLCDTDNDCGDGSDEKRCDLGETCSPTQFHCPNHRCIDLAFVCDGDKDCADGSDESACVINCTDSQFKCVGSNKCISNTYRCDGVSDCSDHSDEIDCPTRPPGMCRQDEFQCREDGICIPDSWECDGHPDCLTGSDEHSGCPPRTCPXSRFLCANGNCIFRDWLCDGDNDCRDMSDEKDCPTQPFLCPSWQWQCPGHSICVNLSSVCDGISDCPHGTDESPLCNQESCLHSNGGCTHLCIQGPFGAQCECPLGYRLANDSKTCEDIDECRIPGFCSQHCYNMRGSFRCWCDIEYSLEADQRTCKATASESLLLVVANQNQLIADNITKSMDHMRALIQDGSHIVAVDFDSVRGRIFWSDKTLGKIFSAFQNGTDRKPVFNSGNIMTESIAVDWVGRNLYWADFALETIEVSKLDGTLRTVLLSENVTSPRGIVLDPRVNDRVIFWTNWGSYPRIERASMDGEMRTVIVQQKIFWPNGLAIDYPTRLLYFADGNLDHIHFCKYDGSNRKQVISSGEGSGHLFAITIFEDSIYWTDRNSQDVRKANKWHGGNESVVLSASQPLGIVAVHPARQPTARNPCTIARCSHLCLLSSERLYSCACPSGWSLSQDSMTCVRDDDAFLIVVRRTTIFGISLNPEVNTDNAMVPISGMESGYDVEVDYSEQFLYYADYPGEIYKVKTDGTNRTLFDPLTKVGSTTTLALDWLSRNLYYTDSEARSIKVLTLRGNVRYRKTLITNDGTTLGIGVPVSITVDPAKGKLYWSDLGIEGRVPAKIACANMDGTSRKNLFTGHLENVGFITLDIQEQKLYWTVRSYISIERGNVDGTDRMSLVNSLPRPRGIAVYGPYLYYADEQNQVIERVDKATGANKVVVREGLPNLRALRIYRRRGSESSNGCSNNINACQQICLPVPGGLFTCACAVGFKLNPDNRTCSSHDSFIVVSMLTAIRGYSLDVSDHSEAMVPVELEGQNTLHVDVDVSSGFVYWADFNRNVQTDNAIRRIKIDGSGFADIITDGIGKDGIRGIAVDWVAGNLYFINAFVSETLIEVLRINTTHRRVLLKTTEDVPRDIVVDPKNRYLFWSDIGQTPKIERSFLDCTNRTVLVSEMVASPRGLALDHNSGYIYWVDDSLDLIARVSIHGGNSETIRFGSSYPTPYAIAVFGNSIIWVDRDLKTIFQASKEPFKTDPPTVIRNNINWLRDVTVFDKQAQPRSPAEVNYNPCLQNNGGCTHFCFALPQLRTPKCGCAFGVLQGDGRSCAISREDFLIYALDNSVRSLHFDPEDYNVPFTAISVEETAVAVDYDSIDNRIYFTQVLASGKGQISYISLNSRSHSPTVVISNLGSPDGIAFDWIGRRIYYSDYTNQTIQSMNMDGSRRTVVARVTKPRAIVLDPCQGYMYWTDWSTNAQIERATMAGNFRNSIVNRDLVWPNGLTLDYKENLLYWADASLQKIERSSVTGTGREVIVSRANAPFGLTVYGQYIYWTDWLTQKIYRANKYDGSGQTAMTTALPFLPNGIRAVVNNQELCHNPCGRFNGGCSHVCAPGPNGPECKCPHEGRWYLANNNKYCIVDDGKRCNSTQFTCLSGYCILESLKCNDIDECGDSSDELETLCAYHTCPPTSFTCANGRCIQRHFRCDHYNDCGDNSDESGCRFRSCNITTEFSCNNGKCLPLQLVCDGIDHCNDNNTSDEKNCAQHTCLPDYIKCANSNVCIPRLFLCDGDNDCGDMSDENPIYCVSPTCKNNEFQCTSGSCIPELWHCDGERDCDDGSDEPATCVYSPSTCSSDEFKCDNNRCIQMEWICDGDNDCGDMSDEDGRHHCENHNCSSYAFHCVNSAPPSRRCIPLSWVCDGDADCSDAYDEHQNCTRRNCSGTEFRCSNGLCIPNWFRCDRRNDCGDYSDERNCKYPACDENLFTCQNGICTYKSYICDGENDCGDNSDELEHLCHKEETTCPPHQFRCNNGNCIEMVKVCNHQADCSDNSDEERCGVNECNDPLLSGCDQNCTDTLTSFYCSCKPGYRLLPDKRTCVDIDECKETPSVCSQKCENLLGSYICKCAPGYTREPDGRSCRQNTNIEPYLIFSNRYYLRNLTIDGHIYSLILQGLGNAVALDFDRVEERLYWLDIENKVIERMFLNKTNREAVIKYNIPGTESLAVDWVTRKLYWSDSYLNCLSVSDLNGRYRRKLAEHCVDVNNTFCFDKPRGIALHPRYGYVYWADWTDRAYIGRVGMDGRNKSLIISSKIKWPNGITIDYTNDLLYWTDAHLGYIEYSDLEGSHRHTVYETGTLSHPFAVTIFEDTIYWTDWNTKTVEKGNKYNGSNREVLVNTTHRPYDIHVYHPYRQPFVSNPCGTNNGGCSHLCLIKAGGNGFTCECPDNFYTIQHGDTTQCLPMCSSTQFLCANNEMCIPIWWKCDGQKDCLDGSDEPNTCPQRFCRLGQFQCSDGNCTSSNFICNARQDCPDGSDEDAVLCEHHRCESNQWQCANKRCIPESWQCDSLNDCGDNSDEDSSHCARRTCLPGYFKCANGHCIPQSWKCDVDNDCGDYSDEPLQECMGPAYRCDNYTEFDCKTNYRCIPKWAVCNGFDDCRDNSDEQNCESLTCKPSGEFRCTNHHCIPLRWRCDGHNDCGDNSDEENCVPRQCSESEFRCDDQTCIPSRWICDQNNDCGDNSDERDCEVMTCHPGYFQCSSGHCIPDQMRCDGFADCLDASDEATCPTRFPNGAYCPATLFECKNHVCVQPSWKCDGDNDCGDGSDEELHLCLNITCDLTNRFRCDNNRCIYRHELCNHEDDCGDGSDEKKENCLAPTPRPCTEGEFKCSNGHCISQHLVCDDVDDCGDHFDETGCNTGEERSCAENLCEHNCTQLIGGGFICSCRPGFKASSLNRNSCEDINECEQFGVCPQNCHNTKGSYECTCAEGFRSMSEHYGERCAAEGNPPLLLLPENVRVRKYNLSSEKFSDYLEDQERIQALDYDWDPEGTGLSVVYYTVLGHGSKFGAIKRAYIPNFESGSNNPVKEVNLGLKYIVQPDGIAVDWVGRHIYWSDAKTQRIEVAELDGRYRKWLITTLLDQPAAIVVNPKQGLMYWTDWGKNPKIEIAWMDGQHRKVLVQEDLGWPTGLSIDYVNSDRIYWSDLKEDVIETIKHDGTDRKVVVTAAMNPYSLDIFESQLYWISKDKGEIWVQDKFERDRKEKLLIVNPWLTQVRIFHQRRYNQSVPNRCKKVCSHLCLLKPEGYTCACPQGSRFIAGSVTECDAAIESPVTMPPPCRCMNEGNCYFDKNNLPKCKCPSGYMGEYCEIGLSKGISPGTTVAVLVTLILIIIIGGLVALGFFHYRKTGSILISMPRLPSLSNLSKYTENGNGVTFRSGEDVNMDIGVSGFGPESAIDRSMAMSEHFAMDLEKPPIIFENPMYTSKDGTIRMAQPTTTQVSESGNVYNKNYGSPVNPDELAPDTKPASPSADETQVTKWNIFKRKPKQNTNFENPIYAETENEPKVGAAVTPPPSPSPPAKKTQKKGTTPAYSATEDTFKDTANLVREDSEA

SMILES: NCCCC[C@@H](N)C(=O)O [5x-D-lysine, D-lysine]
- Urinary alanine [1, 8]: 1097 ± 106.5 mM/M creatinine
- Urinary arginine [1, 8]: 265 ± 27.5 mM/M creatinine
- Urinary cystine [1, 8]: 481.6 ± 32.8 mM/M creatinine
- Urinary glycine [1, 8]: 1066 ± 162 mM/M creatinine
- Urinary lysine [1, 8]: 123,851 ± 8548 mM/M creatinine
- urinary lysine concentration reached ([1]; Ctns KO mice, daily urine collections): ~ 150 mM
- increase of argininuria ([1]; Ctns KO mice, vs control diet): 12 fold
- increase of cystinuria ([1]; Ctns KO mice, vs control diet): 7 fold
- increase of lysinuria ([1]; Ctns KO mice, vs control diet): 2200 fold
- increase of urinary excretion of CC16 (normalized for creatinine excretion) (megalin pathway [2]): 20 fold
- tolerance of prolonged diet [3]: strong polyuria but no weight loss
- IC50 (porcine megalin [4]; [9]): 22 mM
- SPR signal of amino-acid alone on megalin chip (porcine megalin [4]): no signal was detected
- effect on megalin binding of lysozyme (porcine megalin [5]): concentration-dependent decrease
- mean kidney cystine at 8 months-of-age (Ctns KO mice kidneys; Ctns KO female mice): 44.6 ± 10.8 nmol hemi-cystine/mg kidney protein
- kidney cystine accumulation during the treatment period (Ctns KO mice kidneys; Ctns KO mice): probably fully arrested
- increase of microalbuminuria vs control diet (megalin pathway [6]; Ctns KO female mice, diet from 6-to-8 months of age): > twofold
- Urine CC16/creatinine (megalin pathway [6]; [10]): 18,257 ± 1488 μg/g
- Urine microalbumin/creatinine (megalin pathway [6]; [10]): 0.5 ± 0.2 (n = 8) mg/g
- Body weight [7]: 22.4 ± 0.3 g
- Serum creatinine ([7]; serum): 0.8 ± 0.1 mg/dL
- Serum cystatin-C ([7]; serum): 723.3 ± 32.7 ng/mL
- Serum glucose ([7]; serum): 172.4 ± 7.9 mg/dL
- Serum phosphate ([7]; serum): 9.5 ± 0.4 mg/dL
- Serum urea ([7]; serum): 43.2 ± 2.0 mg/dL
- Daily creatinine output ([7]; urine): 0.7 ± 0.1 mg/day
- Diuresis ([7]; urine): 5.3 ± 0.8 mL/day
- Urine creatinine ([7]; urine): 13.4 ± 1.2 mg/dL
- Urine glucose/creatinine ([7]; urine): 54.4 ± 4.5 g/g
- Urine phosphate/creatinine ([7]; urine): 4.8 ± 0.4 g/g
- Urine urea/creatinine ([7]; urine): 181.8 ± 11.6 g/g
- liver cystine level at 8 months-of-age (Ctns KO mice liver): did not affect

SMILES: N=C(N)NCCC[C@H](N)C(=O)O [arginine]
- IC50 (porcine megalin [4]; [11]): ~60 mM

SMILES: NCCCC[C@H](N)C(=O)O [lysine]
- IC50 (porcine megalin [4]; [11]): ~25 mM

SMILES: NC(N)=NCCC[C@@H](N)C(=O)O [5x-D-arginine, D-arginine]
- tolerance of prolonged diet [3]: weight loss and eventual high mortality
- IC50 (porcine megalin [4]; [9]): 60 mM
- SPR signal of amino-acid alone on megalin chip (porcine megalin [4]): no signal was detected
- effect on megalin binding of lysozyme (porcine megalin [5]): concentration-dependent decrease

- SPR signal of amino-acid alone on megalin chip (porcine megalin [4]): no signal was detected
- effect on megalin:TC:B12 interaction (porcine megalin [4]; up to 100 mM): No detectable effect
- effect on megalin binding of lysozyme (porcine megalin [5]): No detectable effect
SMILES: NCC(=O)O [glycine]
